One may read the inhibition as the change of the read-out against control, counted positive when it falls.

In one assay the target is T1, His-hMAGL (recombinant polyhistidine tagged human MAGL protein) (Homo sapiens, UniProt Q99685).
T1 construct: made in house; host or cells: E. coli BL21(DE3)
T1 sequence (Q99685 1-303): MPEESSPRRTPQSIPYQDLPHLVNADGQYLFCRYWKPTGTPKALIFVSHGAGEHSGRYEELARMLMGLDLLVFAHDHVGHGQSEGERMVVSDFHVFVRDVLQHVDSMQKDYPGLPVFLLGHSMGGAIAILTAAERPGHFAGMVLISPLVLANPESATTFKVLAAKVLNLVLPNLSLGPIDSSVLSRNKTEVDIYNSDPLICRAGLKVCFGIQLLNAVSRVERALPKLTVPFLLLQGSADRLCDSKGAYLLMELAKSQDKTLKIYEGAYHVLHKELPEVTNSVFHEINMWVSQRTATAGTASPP
As to the kind of experiment: Measurement of MAGL inhibitory activity (arachidonic acid production from 2-arachidonylglycerol, RapidFire-mass spectrometry). Format: biochemical. Particulars: MAGL inhibitory rate, test compound 10 μM, 60 min preincubation, 2-arachidonylglycerol substrate. Put shortly:
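Arachidonic acid formed was quantified by online solid-phase extraction and triple-quadrupole MS in negative SRM mode against a d8 internal standard. Reaction: recombinant His-hMAGL (7.5 ng/mL, pH 7.5 Tris buffer with Triton X-100 and BSA) plus 2-AG (5 μL of 150 μM stock) for 10 min at room temperature, quenched with 2% formic acid. Percent inhibition corrected for enzyme-free background.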
`O=C1NC2(CO1)CN(C(=O)c1sc3cc(C4=CCC(F)(F)CC4)cc(F)c3c1C1=CCC(F)(F)CC1)C2` [Example 310, 2-((3,6-bis(4,4-difluorocyclohex-1-en-1-yl)-4-fluoro-1-benzothiophen-2-yl)carbonyl)-7-oxa-2,5-diazaspiro[3.4]octan-6-one]: the inhibition at 10 µM is 100%.
Take `CC(Oc1ccc(C(F)(F)F)cc1F)C1CN(C(=O)N2CC3(CCC(=O)N3)C2)C1` (stereo not shown) [Example 10, 2-((3-(1-(2-fluoro-4-(trifluoromethyl)phenoxy)ethyl)azetidin-1-yl)carbonyl)-2,5-diazaspiro[3.4]octan-6-one]: the inhibition at 10 µM turned out to be 101%.
Consider `O=C1NC2(CO1)CN(C(=O)c1sc3c(C(F)F)c(OC(F)(F)F)ccc3c1Cl)C2` [Example 302, 2-((3-chloro-7-(difluoromethyl)-6-(trifluoromethoxy)-1-benzothiophen-2-yl)carbonyl)-7-oxa-2,5-diazaspiro[3.4]octan-6-one], for which the inhibition at 10 µM was determined as 101%.
Still for that read-out and setting: the same measure for `Cc1cccc(F)c1-c1ccc2c(Cl)c(C(=O)N3CC4(CCC(=O)N4)C3)sc2c1` [Example 203, 2-((3-chloro-6-(2-fluoro-6-methylphenyl)-1-benzothiophen-2-yl)carbonyl)-2,5-diazaspiro[3.4]octan-6-one]: 101%; for `Cc1ccc(-c2ccc(C(=O)N3CC4(CCC(=O)N4)C3)cc2)c(C)c1` [Example 88, 2-((2′,4′-dimethylbiphenyl-4-yl)carbonyl)-2,5-diazaspiro[3.4]octan-6-one]: 98%.
Same read-out and setting: the same measure for `O=C1NC2(CO1)CN(C(=O)c1sc3cc(OC(F)(F)F)cc(F)c3c1Cl)C2` [Example 269, 2-((3-chloro-4-fluoro-6-(trifluoromethoxy)-1-benzothiophen-2-yl)carbonyl)-7-oxa-2,5-diazaspiro[3.4]octan-6-one]: 100%; for `O=C1CCC2(CN(C(=O)c3ccc(-c4cccc5c4CCO5)cc3)C2)N1` [Example 75, 2-(4-(2,3-dihydro-1-benzofuran-4-yl)benzoyl)-2,5-diazaspiro[3.4]octan-6-one]: 90%; for `O=C1CCC2(CN(C(=O)N3CCN(C(c4ccc(F)cc4)c4ccc(F)cc4)CC3)C2)N1` [Example 113, 2-((4-(bis(4-fluorophenyl)methyl)piperazin-1-yl)carbonyl)-2,5-diazaspiro[3.4]octan-6-one]: 101%.
The same measure, in the same setting: the same measure for `O=C1CCC2(CN(C(=O)c3sc(-c4ccccc4C(F)(F)F)cc3Cl)C2)N1` [Example 180, 2-((3-chloro-5-(2-(trifluoromethyl)phenyl)-2-thienyl)carbonyl)-2,5-diazaspiro[3.4]octan-6-one]: 87%; for `Cc1c(C(=O)N2CC3(COC(=O)N3)C2)sc2cc(-c3c(F)cccc3F)ccc12` [Example 351, 2-((6-(2,6-difluorophenyl)-3-methyl-1-benzothiophen-2-yl)carbonyl)-7-oxa-2,5-diazaspiro[3.4]octan-6-one]: 100%.
`Cc1c(F)cccc1-c1ccc2c(Cl)c(C(=O)N3CC4(CCC(=O)N4)C3)sc2c1` [Example 204, 2-((3-chloro-6-(3-fluoro-2-methylphenyl)-1-benzothiophen-2-yl)carbonyl)-2,5-diazaspiro[3.4]octan-6-one]: the inhibition at 10 µM was found to be 100%.
On the same count and under the same terms, the same measure for `O=C1CCC2(CN(C(=O)c3sc4cc(-c5cc(F)ccc5F)ccc4c3Cl)C2)N1` [Example 212, 2-((3-chloro-6-(2,5-difluorophenyl)-1-benzothiophen-2-yl)carbonyl)-2,5-diazaspiro[3.4]octan-6-one]: 100%; for `O=C1NC2(CO1)CN(C(=O)c1sc3ccc(C(F)(F)F)cc3c1Cl)C2` [Example 258, 2-((3-chloro-5-(trifluoromethyl)-1-benzothiophen-2-yl)carbonyl)-7-oxa-2,5-diazaspiro[3.4]octan-6-one]: 100%.
As for `O=C1CCC2(CN(C(=O)c3ccc(-c4cccc(C5(C(F)(F)F)CC5)c4)cc3)C2)N1` [Example 64, 2-((3′-(1-(trifluoromethyl)cyclopropyl)biphenyl-4-yl)carbonyl)-2,5-diazaspiro[3.4]octan-6-one], the inhibition at 10 µM stood at 99%.
On the same count and under the same terms, the same measure for `CC1(c2cccc(-c3cc(Cl)c(C(=O)N4CC5(COC(=O)N5)C4)s3)c2)CC1` [Example 281, 2-((3-chloro-5-(3-(1-methylcyclopropyl)phenyl)-2-thienyl)carbonyl)-7-oxa-2,5-diazaspiro[3.4]octan-6-one]: 100%; for `O=C1CCC2(CN(C(=O)c3sc(-c4cccc(OCC5CC5)c4)cc3Cl)C2)N1` [Example 182, 2-((3-chloro-5-(3-(cyclopropylmethoxy)phenyl)-2-thienyl)carbonyl)-2,5-diazaspiro[3.4]octan-6-one]: 98%; for `Cc1cc(OC(F)(F)F)cc2sc(C(=O)N3CCC4(COC(=O)N4)C3)c(Cl)c12` (stereo not shown) [Example 331, 7-((3-chloro-4-methyl-6-(trifluoromethoxy)-1-benzothiophen-2-yl)carbonyl)-3-oxa-1,7-diazaspiro[4.4]nonan-2-one]: 101%.
Still for that read-out and setting: the same measure for `O=C1NC2(CO1)CN(C(=O)c1sc3cc(OC(F)(F)F)cc(C(F)F)c3c1Cl)C2` [Example 316, 2-((3-chloro-4-(difluoromethyl)-6-(trifluoromethoxy)-1-benzothiophen-2-yl)carbonyl)-7-oxa-2,5-diazaspiro[3.4]octan-6-one]: 100%.
Turning to `O=C1NC2(CCN(C(=O)c3sc4cc(Cl)cc(Cl)c4c3Cl)C2)CO1` (stereo not shown) [Example 325, 7-((3,4,6-trichloro-1-benzothiophen-2-yl)carbonyl)-3-oxa-1,7-diazaspiro[4.4]nonan-2-one], the inhibition at 10 µM was 80%.
On to `O=C1CCC2(CN(C(=O)[C@H]3C[C@H](COc4ccc(F)cc4Cl)C3)C2)N1` [Example 26, 2-((trans-3-((2-chloro-4-fluorophenoxy)methyl)cyclobutyl)carbonyl)-2,5-diazaspiro[3.4]octan-6-one], for which the inhibition at 10 µM is 98%.
Still for that read-out and setting: the same measure for `O=C1CCC2(CN(C(=O)c3sc4cc(C5=CCC(F)(F)CC5)ccc4c3Cl)C2)N1` [Example 179, 2-((3-chloro-6-(4,4-difluorocyclohex-1-en-1-yl)-1-benzothiophen-2-yl)carbonyl)-2,5-diazaspiro[3.4]octan-6-one]: 100%.
Turning to `O=C1CCC2(CN(C(=O)c3ccc(-c4ccc5c(c4)CCC5)cc3)C2)N1` [Example 57, 2-(4-(2,3-dihydro-1H-inden-5-yl)benzoyl)-2,5-diazaspiro[3.4]octan-6-one], the inhibition at 10 µM was found to be 99%.
Same read-out and setting: the same measure for `Cc1ccc(F)cc1-c1ccc2c(Cl)c(C(=O)N3CC4(CCC(=O)N4)C3)sc2c1` [Example 205, 2-((3-chloro-6-(5-fluoro-2-methylphenyl)-1-benzothiophen-2-yl)carbonyl)-2,5-diazaspiro[3.4]octan-6-one]: 101%.
On the same count and under the same terms, the same measure for `O=C1CCC2(CCN(C(=O)N3CC(COc4ccc(C(F)(F)F)cc4F)C3)C2)N1` (stereo not shown) [Example 319, 7-((3-((2-fluoro-4-(trifluoromethyl)phenoxy)methyl)azetidin-1-yl)carbonyl)-1,7-diazaspiro[4.4]nonan-2-one]: 96%.

Still in this assay, the particulars now being: MAGL inhibitory rate, test compound 10 μM, 60 min preincubation, 2-arachidonylglycerol substrate; 10 µM.
With `O=C1NC2(CCN(C(=O)c3sc4cc(Cl)cc(Cl)c4c3Cl)C2)CO1` (stereo not shown) [Example 327, 7-((3,4,6-trichloro-1-benzothiophen-2-yl)carbonyl)-3-oxa-1,7-diazaspiro[4.4]nonan-2-one], the “% inhibition (10 μM)” value came to 99%.

(Values after patent publication US10610520B2, “Heterocyclic compound” (Takeda Pharmaceutical Company Limited, priority 2016, dated 2020).)
